Source: patent US20240124442A1, “TRICYCLIC-AMIDO-BICYCLIC PRMT5 INHIBITORS” (AMGEN INC., priority 2021, published 2024)
pIC50: −log10 of the molar value.

Assays:
[1] = system: HCT116 MTAP null cells; test: HCT116 MTAP null cell line proliferation / cell viability (CellTiter-Glo, 6 days); assay type: cell-based; conditions: 144 h; HCT116 MTAP null cells, 6 days treatment, CellTiter-Glo cell viability; read-out: HCT-116 MTAP null IC50
Method in brief: (§1)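 Isogenic HCT116 pair (parental and MTAP-knockout) in RPMI 1640 + 10% FBS, treated 6 days with 8–9-point 1:3 dilutions from 1 or 10 μM top, or 22-point 1:2 dilutions from 10 or 50 μM top. Viability by CellTiter-Glo luminescence; IC50 from 4-parameter logistic fit or sigmoidal fit with Hill slope fixed at −1.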

[2] = system: HCT116 WT cells; test: HCT116 WT (parent) cell line proliferation / cell viability (CellTiter-Glo, 6 days); assay type: cell-based; conditions: Homo sapiens, HCT-116, 144 h, 6 days treatment
Method in brief: as §1

pIC50 [1]	pIC50 [2]	SMILES
8.00	6.38	C[C@H]1OCc2c1c(N)nc1cc(F)c(C(=O)N(C3CC3)[C@@H]3COc4cc(C(F)(F)F)ccc43)cc21 [Example 467, (3R)-4-amino-N-cyclopropyl-7-fluoro-3-methyl-N-((3S)-6-(trifluoromethyl)-2,3-dihydro-1-benzofuran-3-yl)-1,3-dihydrofuro[3,4-c]quinoline-8-carboxamide]
6.94	5.57	CC(C)N(C(=O)c1cc2c3c(c(N)nc2cc1F)[C@@H](C)OC3)[C@@H]1COc2cc(C(F)(F)F)ccc21 [Example 468, (3R)-4-amino-7-fluoro-3-methyl-N-(2-propanyl)-N-((3S)-6-(trifluoromethyl)-2,3-dihydro-1-benzofuran-3-yl)-1,3-dihydrofuro[3,4-c]quinoline-8-carboxamide]
5.56	4.71	CC(C)N(C(=O)c1cc2c3c(c(N)nc2cc1F)[C@@H](C)OC3)[C@H]1COc2cc(C(F)(F)F)ccc21 [Example 469, (3R)-4-amino-7-fluoro-3-methyl-N-(2-propanyl)-N-((3R)-6-(trifluoromethyl)-2,3-dihydro-1-benzofuran-3-yl)-1,3-dihydrofuro[3,4-c]quinoline-8-carboxamide]
7.57	6.59	C[C@H]1OCc2c1c(N)nc1cc(F)c(C(=O)N(C3CCC3)[C@@H]3COc4cc(C(F)(F)F)ccc43)cc21 [Example 470, (3R)-4-amino-N-cyclobutyl-7-fluoro-3-methyl-N-((3S)-6-(trifluoromethyl)-2,3-dihydro-1-benzofuran-3-yl)-1,3-dihydrofuro[3,4-c]quinoline-8-carboxamide]
6.24	4.86	C[C@H]1OCc2c1c(N)nc1cc(F)c(C(=O)N(C3CCC3)[C@H]3COc4cc(C(F)(F)F)ccc43)cc21 [Example 471, (3R)-4-amino-N-cyclobutyl-7-fluoro-3-methyl-N-((3R)-6-(trifluoromethyl)-2,3-dihydro-1-benzofuran-3-yl)-1,3-dihydrofuro[3,4-c]quinoline-8-carboxamide]
7.82	6.46	CN(C(=O)c1ccc2nc(N)c3cnn(C)c3c2c1)[C@@H]1COc2cc(C(F)(F)F)ccc21 [Example 473, 4-amino-N,1-dimethyl-N-((3S)-6-(trifluoromethyl)-2,3-dihydro-1-benzofuran-3-yl)-1H-pyrazolo[4,3-c]quinoline-8-carboxamide]
8.10	6.76	CN(C(=O)c1cc2c(cn1)nc(N)c1cnn(C)c12)[C@@H]1COc2cc(Cl)c(Cl)cc21 [Example 474, 4-amino-N-((3S)-5,6-dichloro-2,3-dihydro-1-benzofuran-3-yl)-N,1-dimethyl-1H-pyrazolo[4,3-c][1,7]naphthyridine-8-carboxamide]
8.10	6.70	CN(C(=O)c1cc2c(cc1F)nc(N)c1cnn(C)c12)[C@@H]1COc2cc(F)c(F)cc21 [Example 475, 4-amino-N-((3S)-5,6-difluoro-2,3-dihydro-1-benzofuran-3-yl)-7-fluoro-N,1-dimethyl-1H-pyrazolo[4,3-c]quinoline-8-carboxamide]
8.22	6.90	CN(C(=O)c1cc2c(cc1F)nc(N)c1cnn(C)c12)[C@@H]1COc2cc(Cl)c(Cl)cc21 [Example 476, 4-amino-N-((3S)-5,6-dichloro-2,3-dihydro-1-benzofuran-3-yl)-7-fluoro-N,1-dimethyl-1H-pyrazolo[4,3-c]quinoline-8-carboxamide]
7.04	5.60	CN(C(=O)c1cc2c(cc1F)nc(N)c1cnn(C)c12)[C@H]1COc2cc(Cl)c(Cl)cc21 [Example 477, 4-amino-N-((3R)-5,6-dichloro-2,3-dihydro-1-benzofuran-3-yl)-7-fluoro-N,1-dimethyl-1H-pyrazolo[4,3-c]quinoline-8-carboxamide]
